From patent US11046646B2, “Alkylphenyl compounds” (BRISTOL-MYERS SQUIBB COMPANY, priority 2017, dated 2021)
pEC50: −log10 of the molar value.

Tests used:
[1] = target: S1P1 (Homo sapiens (Human), UniProt P21453); assay: Receptor [35S] GTPγS binding assay, S1P1; assay type: biochemical; settings: for GTPγS S1P1 EC50 value as compared to Comparative Compound 20: in words; for pEC50: membranes from S1P1/CHO cells, synthetically prepared phosphorylated compounds
Method: (§1) Receptor [^35S] GTPγS Binding Assays:
(§2) Compounds were loaded in a 384 Falcon v-bottom plate (0.5 μL/well in a 11 point, 3-fold dilution). Membranes prepared from S1P1/CHO cells or EDG3-Gal5-bla HEK293T cells (EDG3 equivalent S1P3) were added to the compound plate (40 μL/well, final protein 3 μg/well) with MULTIDROP®. [^35S]GTP (1250 Ci/mmol, Perkin Elmer) was diluted in assay buffer: 20 mM HEPES, pH7.5, 10 mM MgCl2, 150 mM NaCl, 1 mM EGTA(ethylene glycol tetraacetic acid), 1 mM DTT (dithiothreitol), 10 μM GDP, 0.1% fatty acid free BSA, and 10 μg/ml Saponin to 0.4 nM. 40 μL of the [^35S] GTP solution was added to the compound plate with a final concentration of 0.2 nM. The reaction was kept at room temperature for 45 min. At the end of incubation, all the mixtures in the compound plate were transferred to Millipore 384-well FB filter plates via the VELOCITY11® Vprep liquid handler. The filter plate was washed with water 4 times by using the manifold Embla plate washer and dried at 60° C. for 45 min. MicroScint 20 scintillation fluid (30 μL) was added to each well for counting on the Packard TOPCOUNT®. EC50 is defined as the agonist concentration that corresponds to 50% of the Ymax (maximal response) obtained for each individual compound tested.
A smaller value for GTPγS S1P1 EC50 value indicated greater activity for the compound in the GTPγS S1P1 binding assay. Thus the compounds of the present invention may be used in treating, preventing, or curing various S1P1 receptor-related conditions. The compounds have potential use in treating, preventing, or curing autoimmune and inflammatory diseases such as multiple sclerosis, rheumatoid arthritis, inflammatory bowel disease, lupus, psoriasis, or minimizing or reducing rejection of transplanted organs.

[2] = target: S1P3 (EDG3) (Homo sapiens (Human), UniProt Q99500); assay: Receptor [35S] GTPγS binding assay, S1P3; assay type: biochemical; settings: membranes from EDG3-Gal5-bla HEK293T cells; synthetically prepared phosphorylated compounds
Sequence of S1P3 (EDG3) (Q99500 whole entry): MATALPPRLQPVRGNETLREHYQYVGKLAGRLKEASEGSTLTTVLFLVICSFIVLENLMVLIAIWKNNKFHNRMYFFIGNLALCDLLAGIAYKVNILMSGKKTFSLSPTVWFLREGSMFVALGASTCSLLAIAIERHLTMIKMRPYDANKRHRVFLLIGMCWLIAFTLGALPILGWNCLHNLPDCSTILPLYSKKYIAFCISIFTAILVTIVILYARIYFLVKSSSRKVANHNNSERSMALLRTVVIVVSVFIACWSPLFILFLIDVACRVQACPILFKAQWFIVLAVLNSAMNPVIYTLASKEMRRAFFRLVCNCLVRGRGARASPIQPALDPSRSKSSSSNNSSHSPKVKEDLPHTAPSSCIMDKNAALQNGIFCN
Method: as §1, §2

Sequence of S1P1 (P21453 whole entry): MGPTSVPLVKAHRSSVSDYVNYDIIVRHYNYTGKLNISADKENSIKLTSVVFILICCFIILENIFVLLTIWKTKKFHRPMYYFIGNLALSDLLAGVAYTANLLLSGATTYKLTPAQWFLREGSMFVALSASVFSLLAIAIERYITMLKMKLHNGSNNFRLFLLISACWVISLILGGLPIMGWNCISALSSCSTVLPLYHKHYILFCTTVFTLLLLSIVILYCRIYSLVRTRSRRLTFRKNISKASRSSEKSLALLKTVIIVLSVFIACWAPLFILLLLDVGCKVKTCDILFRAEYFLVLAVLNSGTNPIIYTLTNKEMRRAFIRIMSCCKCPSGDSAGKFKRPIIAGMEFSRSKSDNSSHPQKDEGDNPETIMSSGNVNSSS

GTPγS S1P1 EC50 value as compared to Comparative Compound 20 [1] | pEC50 [1] | pEC50 [2] | Structure (SMILES)
significant improvement | 6.79 | < 4.22 | CCCCCCCCc1ccc(N2CCC(N)(COP(=O)(O)O)C2=O)c(C)c1 (stereo not shown) [Example 17, (3-amino-1-(2-methyl-4-octylphenyl)-2-oxopyrrolidin-3-yl)methyl dihydrogen phosphate]
 | 6.42 | < 4.52 | CCCCCCCCc1ccc(N2CCC(N)(COP(=O)(O)O)C2)cc1 (stereo not shown) [compound 20, (3-amino-1-(4-octylphenyl)pyrrolidin-3-yl)methyl dihydrogen phosphate, reference compound]
significant improvement | 7.39 | < 4.52 | CCCCCCCCc1ccc(CN2CCC(N)(COP(=O)(O)O)C2=O)cc1 (stereo not shown) [Example 14, (3-amino-1-(4-octylbenzyl)-2-oxopyrrolidin-3-yl)methyl dihydrogen phosphate]
 | 6.34 | < 4.22 | CCCCCCCCc1ccc(N2CCC(N)(COP(=O)(O)O)C2=O)cc1 (stereo not shown) [Example 18, (3-amino-1-(4-octylphenyl)-2-oxopyrrolidin-3-yl)methyl dihydrogen phosphate]
